Measurements published in patent US12064420B2, “Tie-2 activators targeting the Schlemm's canal” (EyePoint Pharmaceuticals, Inc., priority 2019, dated 2024).

How the values were obtained:
[1] = tested on: New Zealand White rabbits; experiment: Local tolerance in rabbits (slit lamp biomicroscopy, McDonald-Shadduck scoring); type: in vivo, rabbit; details: slit lamp biomicroscopy during the study
C57 mice = experiment: IOP in mice after once daily topical dosing (rebound tonometry); type: in vivo, mouse
Method: Mice were handled in accordance with acceptable animal care and use guidelines. C57BL/6 (C57) mice were bred/housed in clear cages and kept in housing rooms at 21° C. with a 12 h: 12 h light-dark cycle. Mice were examined at ages between 4 to 6 months old.
Each animal was randomly assigned to receive one masked treatment (eye drops, 4% Compound 1 or vehicle) in one eye and the other masked treatment in the contralateral eye once daily for three consecutive days. IOPs of both eyes were measured prior to eye drop administration using rebound tonometry between 11 am and 1 pm daily. After collecting IOP measurements on the third day, a final drop of Compound 1 or placebo was administered and TOP was measured again 2 and 4 hours later. For TOP measurements, mice were anesthetized with ketamine (60 mg/kg) and xylazine (6 mg/kg). TOP was immediately measured as the mice stopped moving, while drifting into light sleep, but before becoming anesthetized. Each TOP measurement that was recorded was a result of an average of six independent measurements per time point, giving a total of […] measurements from the same eye.

C57B16 mice = experiment: Schlemm's canal area in mice (PECAM-1 staining); type: in vivo, mouse; details: 4% eye drops (5 μL) BID for 4 weeks, 4-week old mice
Method: Prior to application of eye drops, mice were anaesthetized using an isoflurane evaporator. Whole mounts of corneas were stained for PECAM-1 (FIG. 6A) and SC areas were measured (FIG. 6B). As depicted in FIG. 6A, 20× fields shown represent an area of […]. Images were captured as Z stacks with a step size of 0.89 μm and a pinhole of 1 airy unit, and are shown as maximum intensity projections. For quantification (FIG. 6B), SC area was measured in sixteen 20× images per condition for 4 eyes of 2 mice; *p≤0.05. Treatment with Compound 1 enhanced SC area by about 12.2% (±4.7%; p=0.022) with topical ocular Compound 1 treatment compared to vehicle.

Tie-2 = Tie-2 phosphorylation in Schlemm's canal, whole mount immunofluorescence; type: in vivo, mouse; details: 1 hour after single topical ocular administration of 4% eye drops
Method: VE-PTP expression was assessed in the endothelium of SC in VE-PTP knock-in reporter mice expressing a nuclear-localizing β-galactosidase from the endogenous VE-PTP promoter (VE-PTP+/mut). C57BL/6JRj mice were also used in the experiments as control animals. Mice were anaesthetized using ketamine (125 mg/kg) and xylazine (12.5 mg/kg). 10 μL of Compound 1 eye drop solution (4% Compound 1) or vehicle was applied to each eye. Mice were euthanized 1 hour following dosing, and the eyes were processed for immunofluorescence analysis to detect Tie-2 phosphorylation. […]
To evaluate VE-PTP mediated signaling, tyrosine phosphorylation and activation of Tie-2 in SC following VE-PTP inhibition was assessed one hour following a single topical ocular administration of Compound 1. […]

Structure (SMILES): COC(=O)N[C@@H](Cc1ccccc1)C(=O)N[C@@H](Cc1ccc(NS(=O)(=O)O)cc1)c1csc(-c2cccs2)n1 [Compound 1, 4-{(S)-2-[(S)-2-(Methoxycarbonylamino)-3-phenylpropanamido]-2-[2-(thiophen-2-yl)thiazol-4-yl]ethyl}phenylsulfamic acid]
- adverse effects on local tolerance [1]: No adverse effects
- decrease of IOP (C57 mice; 4% topical QD, Day 3, 2 and 4 hours after treatment): ~30%
- change in IOP relative to Day 0, mean±standard error (C57 mice; 4% topical QD, just prior to dosing on Day 1): −0.74±0.43 mmHg
- change in IOP relative to Day 0, mean±standard error (C57 mice; 4% topical QD, just prior to dosing on Day 2): −1.00±0.27 mmHg
- change in IOP relative to Day 0, mean±standard error (C57 mice; 4% topical QD, prior to dosing on Day 3): −1.6±0.3 mmHg
- change in IOP compared to both Day 0 pretreatment and placebo treatment, mean±SE (C57 mice; Day 3, 2 hours after treatment): −3.85±1.1 mmHg
- change in IOP compared to only placebo-treated eyes, mean±SE (C57 mice; Day 3, 2 hours after treatment): −5.66±1.0 mmHg
- change in IOP compared to both Day 0 pretreatment and placebo treatment, mean±SE (C57 mice; Day 3, 4 hours after treatment): −3.1±0.6 mmHg
- change in IOP compared to only placebo-treated eyes, mean±SE (C57 mice; Day 3, 4 hours after treatment): −4.87±0.75 mmHg
- enhancement of Schlemm's canal area compared to vehicle (C57B16 mice): about 12.2%
- staining of Schlemm's canal for tyrosine phosphorylated Tie-2 (pY992-Tie-2) (Tie-2): enhanced
